In patent publication US20170065554A1, “ACTIVATED SOY POD FIBER” (priority 2014, published 2017):
pEC50: −log10 of the molar value.

Tested on: 3T3-L1 adipocytes
Assay: [3H]-2-deoxy-glucose uptake by adipocytes
Assay type: cell-based, Murine
Procedure: To determine if one mechanism for glyceollins to improve the oral glucose challenge in a prediabetic model is by increasing the glucose uptake by fat, glyceollin pharmacology was studied in 3T3-L1 cells. Murine preadipocytes (Zen-Bio Inc.) were cultured using PM-1-L1 medium (Zen-Bio Inc.) containing Dulbecco's modified Eagle's medium (DMEM)/Ham's F-10 medium (1:1, v/v), HEPES 15 mM (pH 7.4), 10% (v/v) fetal bovine serum, penicillin (100 U/ml), streptomvcin ([…]), and amphotericin B (0.25 μg/ml) in a humidified atmosphere (5% CO2/95% air). After 3-4 days, confluent cells were placed in differentiation medium (DM-2-L1, Zen-Bio Inc.) containing DMEM/Ham's F-10 medium (1:1, v/v), HEPES 15 mM (pH 7.4), 3% (v/v) fetal bovine serum, biotin ([…]), pantothenate (17 μM), human insulin (100 nM), dexamethasone (1 μM), penicillin (100 U/ml), streptomycin (100 μg/ml), amphotericin B (0.25 μg/ml), isobutylmethylxanthine ([…]) and PPARγ agonist (10 μM) and further incubated in the humidified atmosphere for 3 days. […]
Adipocytes were rinsed in sterile, fresh KRH buffer (HEPES pH=7.4, 1 mM CaCl2, 1.2 mM MgSO4, 1 mM KH2PO4, 1.4 mM KCl, […], 130 mM NaCl), and then preincubated for 24 h in KRH buffer. […] The vials were mixed and counted for 10 min in an Applied Biosystems 1100 liquid scintillation counter using the factory preset window to detect tritium.

For insulin, the “maximal stimulation relative to basal glucose uptake” value (0.3 nM-300 nM insulin) was “about 3 times” and the pEC50 (insulin 30 min at 37° C., then 10 min [3H]-2-deoxy-glucose, read-out: EC50 of insulin-mediated glucose uptake) was 8.72.
